Assay: Determination of the surface tension (Kruss tensiometer K12, ring method)
Type: physicochemical
Details: for surface tension: measurement solutions in deionised water, 20° C.
Procedure: • Instrument: Kruss tensiometer (model K12) • Temperature of the measurement solutions: 20° C. • Measurement module employed: ring • Concentration of the measurement solutions: about 0.5 to 3.0 g/l in deionised water
Further details on the method are given in the European Commission publication: Classification, Packaging and Labelling of Dangerous Substances in the European Union, Part II-Test Methods, Annex V-Methods for Determining the Physical-Chemical Properties, the Toxicity and the Ecotoxicity, Part A, Surface Tension (A.5), January 1997, pages 51-57, and also the OECD Guideline for the Testing of Chemicals, Section 1, Physical-Chemical Properties, method 115, pages 1-7, adopted: 27.07.95, the contents of which in this respect are expressly part of the disclosure content of the present application.

Work on `O=S(=O)([O-])CCCCCCCCCCCSCCC(F)(F)F.[Na+]` [CF3—CH2—CH2—S—(CH2)11—SO3Na] yielded a surface tension (Concentration: 100.7 mg/100 ml) of 38.55 mN/m.
For `O=C(O)CCCCCCCCCCSCCC(F)(F)F` [Example 5c, 11-(3,3,3-Trifluoropropylsulfanyl)undecanoic acid], the “Surface tension of an aqueous solution of the sodium salt” value (at 0.016 mol/l, sodium salt (2 eq of NaOH/eq of carboxylic acid)) was 33.4 mN/m.
For “11-(S-trifluoromethyl)mercaptoundecane-1-sulfonic acid sodium salt [CF3—S—(CH2)11—SO3Na]”, the surface tension (concentration: 99.8 mg/100 ml) was 31.29 mN/m.

Reference: US20090320718A1, “FLUOROSURFACTANTS” (priority 2006, published 2009)
